Measurements as given in ChEMBL document CHEMBL1201862, “PubChem BioAssay data set” (2004).
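Five concentrations, 48 hours, 96-well plates. GI50 is the concentration that inhibits growth by half.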 Activity calls are given as the source filed them. No stated cut-off is given here; in the data, active = GI50 up to about 1.1 µM and inactive = higher.

What was measured:
Experiment in all cases: DTP human tumour cell line panel, 48 h
[1] = system: SK-OV-3
[2] = system: SR
[3] = system: LOX IMVI
[4] = system: NCI-H522
[5] = system: IGROV-1
[6] = system: MDA-N
[7] = system: HT-29
[8] = system: OVCAR-5
[9] = system: SK-MEL-2
[10] = system: COLO 205
[11] = system: KM12
[12] = system: SF-268
[13] = system: CCRF-CEM
[14] = system: T47D
[15] = system: M14
[16] = system: A498
[17] = system: SNB-19
[18] = system: Malme-3M
[19] = system: UACC-257
[20] = system: SF-295

Measured: GI50

c1ccc2c(NCCCCCCNc3c4ccccc4nc4ccccc34)c3ccccc3nc2c1
inactive: [9] 1.26 µM | [15] 1.23 µM | [16] 1.25 µM | [18] 1.17 µM | [19] 2.7 µM
active: [1] 1.01 µM | [2] 0.0288 µM | [3] 0.105 µM | [4] 0.0893 µM | [5] 0.166 µM | [6] 0.288 µM | [7] 0.0287 µM | [8] 0.13 µM | [10] 0.235 µM | [11] 0.215 µM | [12] 0.56 µM | [13] 0.0471 µM | [14] 0.647 µM | [17] 0.649 µM | [20] 0.281 µM

O=C(O)c1nc(-c2ccccc2)ncc1-c1nnnn1-c1ccccc1
inactive: [1] > 100 µM | [2] > 100 µM | [3] > 100 µM | [4] > 100 µM | [5] > 100 µM | [6] > 100 µM | [7] > 100 µM | [8] > 100 µM | [9] > 100 µM | [10] > 100 µM | [11] > 100 µM | [12] > 100 µM | [13] > 100 µM | [14] > 100 µM | [15] > 100 µM | [16] > 100 µM | [17] > 100 µM | [18] > 100 µM | [19] > 100 µM | [20] > 100 µM

COc1nc(NC2OC(COC(C)=O)C(OC(C)=O)C(OC(C)=O)C2OC(C)=O)c(/N=C/C=N/c2c(NC3OC(COC(C)=O)C(OC(C)=O)C(OC(C)=O)C3OC(C)=O)nc(OC)n(C)c2=O)c(=O)n1C (stereo not given)
inactive: [1] > 88.3 µM | [2] > 100 µM | [3] > 100 µM | [4] > 100 µM | [5] > 100 µM | [6] > 100 µM | [7] > 100 µM | [8] > 100 µM | [9] > 100 µM | [10] > 100 µM | [11] > 100 µM | [12] > 70.3 µM | [13] > 100 µM | [14] > 100 µM | [15] > 100 µM | [16] > 100 µM | [17] 48.4 µM | [18] > 100 µM | [19] > 100 µM | [20] 49.2 µM

COc1ccc2c(c1)C1=NCCN(CCO)c3ccc([N+](=O)[O-])c(c31)N2
active: [1] 0.574 µM | [2] 0.0368 µM | [3] 0.127 µM | [4] 0.264 µM | [5] 0.519 µM | [6] 0.431 µM | [7] 0.324 µM | [8] 0.728 µM | [9] 0.587 µM | [10] 0.298 µM | [11] 0.505 µM | [12] 0.752 µM | [13] 0.18 µM | [14] 0.532 µM | [15] 0.407 µM | [16] 0.798 µM | [17] 0.59 µM | [18] 0.35 µM | [19] 0.581 µM | [20] 0.454 µM

CC1OC(OC2C(CO)OC(O[C@H]3CC[C@@]4(C)C(=CC[C@H]5[C@@H]6C[C@@H]7O[C@](O)(CC[C@H](CO)COC8OC(CO)C(O)C(O)C8O)[C@@H](C)[C@@H]7[C@@]6(C)CC[C@@H]54)C3)C(OC3OC(C)C(O)C(O)C3O)C2O)C(O)C(O)C1O (stereo not given in full)
inactive: [1] > 100 µM | [2] > 100 µM | [3] > 100 µM | [4] > 100 µM | [5] > 100 µM | [6] > 100 µM | [7] > 100 µM | [8] > 100 µM | [9] > 100 µM | [10] > 100 µM | [11] > 100 µM | [12] > 100 µM | [13] > 100 µM | [14] > 100 µM | [15] > 100 µM | [16] > 100 µM | [17] > 100 µM | [18] > 100 µM | [19] > 100 µM | [20] > 100 µM

CN(C)c1ccc(/C(F)=C(F)/C(F)=C(F)/C(F)=C(\F)c2ccc(Br)cc2)cc1
inactive: [1] 30.1 µM | [2] 5 µM | [3] 19.8 µM | [4] 7.46 µM | [5] 27.6 µM | [6] 2.43 µM | [7] 27.5 µM | [8] 23.8 µM | [9] 25.9 µM | [10] 23.4 µM | [11] 9.53 µM | [12] 51.8 µM | [13] 29.4 µM | [14] 34.7 µM | [15] 16.1 µM | [16] 16.7 µM | [17] 23.7 µM | [18] 9.29 µM | [19] > 74.1 µM | [20] 6.98 µM

O=C1c2ccccc2C(=O)N1CCCSc1ccccc1
inactive: [1] > 100 µM | [2] 31.8 µM | [3] > 100 µM | [4] 66.8 µM | [5] 93.8 µM | [6] 91.4 µM | [7] 31.2 µM | [8] > 100 µM | [9] > 100 µM | [10] 66.1 µM | [11] 94.4 µM | [12] > 100 µM | [13] 38.5 µM | [14] 31.3 µM | [15] 66.7 µM | [16] 33 µM | [17] > 100 µM | [18] > 100 µM | [19] 39.7 µM | [20] 22.6 µM

Cc1cc(Nc2ccc(/N=N/c3ccc(O)c4ncccc34)cc2)nc(C)n1
inactive: [1] 23.9 µM | [2] 6.34 µM | [3] 6.52 µM | [4] 10.7 µM | [5] 8.57 µM | [6] 6.62 µM | [7] 31.2 µM | [8] 35.2 µM | [9] 13.8 µM | [10] 20.8 µM | [11] 12.4 µM | [12] 14.6 µM | [13] 2.75 µM | [14] 6.01 µM | [15] 12.6 µM | [16] 21.6 µM | [17] 8.53 µM | [18] 18.6 µM | [19] 16.6 µM | [20] 18.6 µM

COC(=O)C1C2OC(C)(C)OC2CN1S(=O)(=O)c1ccc(C)cc1 (stereo not given)
inactive: [1] > 100 µM | [2] > 100 µM | [3] > 100 µM | [4] > 100 µM | [5] 14.5 µM | [6] > 100 µM | [7] > 100 µM | [8] > 100 µM | [9] > 100 µM | [10] > 100 µM | [11] > 100 µM | [12] > 100 µM | [13] > 100 µM | [14] > 100 µM | [15] > 100 µM | [16] > 100 µM | [17] > 100 µM | [18] > 100 µM | [19] > 100 µM | [20] > 100 µM

CC1=CCCC2C1(C)CCC(C)C2(C)Cc1cc(O)ccc1O (stereo not given)
inactive: [1] 14.6 µM | [2] 5.46 µM | [3] 5.48 µM | [4] 3.18 µM | [5] 5.94 µM | [6] 11.1 µM | [7] 18.7 µM | [8] 21 µM | [9] 9.06 µM | [10] 14.8 µM | [11] 5.94 µM | [12] 7.26 µM | [13] 1.56 µM | [14] 6.59 µM | [15] 14.4 µM | [16] 12.9 µM | [17] 5.68 µM | [18] 17.7 µM | [19] 13.2 µM | [20] 6.3 µM

COC(=O)CCC(=O)c1ccc2c(c1)CC1(C2)Cc2ccc3c(c2C1)CCCC3=O (stereo not given)
active: [2] 0.297 µM
inactive: [1] 50.6 µM | [3] 20 µM | [4] 21.4 µM | [5] 21.9 µM | [6] 4.85 µM | [7] 11.2 µM | [8] 40.1 µM | [9] 7.31 µM | [10] 21.5 µM | [11] 14.7 µM | [12] 33.8 µM | [13] 1.78 µM | [14] 34.8 µM | [15] 9.1 µM | [16] 20.7 µM | [17] 27.2 µM | [18] 18.4 µM | [19] 18.9 µM | [20] 26 µM

COc1ccc(S(=O)(=O)n2c3c(c4ccccc42)[C@@H]2[C@@H](CCCN2C(=O)C[S+]([O-])c2ccc(C)cc2)[C@H](Cl)C3)cc1 (stereo not given in full)
inactive: [1] > 100 µM | [2] > 100 µM | [3] > 100 µM | [4] > 100 µM | [5] 1.51 µM | [6] > 100 µM | [7] > 100 µM | [8] > 100 µM | [9] > 100 µM | [10] > 100 µM | [11] > 100 µM | [12] > 100 µM | [13] > 100 µM | [14] > 100 µM | [15] > 100 µM | [16] > 100 µM | [17] > 100 µM | [18] > 100 µM | [19] > 100 µM | [20] > 100 µM

C/C=C(\C)C(O)C(C)C(O)C/C=C(C)/C=C(\C)C/C(C)=C/C/C=C(\C)C(O)C(C)c1ccc(CCC)c(=O)o1 (stereo not given)
active: [19] 0.249 µM | [20] 0.349 µM
inactive: [1] 32.2 µM | [2] 18.8 µM | [3] 6.68 µM | [4] 2 µM | [5] 14.6 µM | [6] 8.77 µM | [7] 1.69 µM | [8] 19.8 µM | [9] 23.8 µM | [10] 3.78 µM | [11] 7.19 µM | [12] 15.8 µM | [13] 61.8 µM | [14] 12.1 µM | [15] 14.9 µM | [16] 14.7 µM | [17] 16.1 µM | [18] 9.25 µM
